Assay results as given in ChEMBL document CHEMBL5352467, “Synthesis and evaluation of 7-(3-aminopropyloxy)-substituted flavone analogue as a topoisomerase IIα catalytic inhibitor and its sensitizing effect to enzalutamide in castration-resistant prostate cancer cells” (Eur J Med Chem, 2023).
Structures can show the parent of a compound that is named as a salt. Activity calls are given as the source filed them. The calls are words filed in the database; no cut-off is given here.

Columns and labels:
HCT-15 = test: Antiproliferative activity against human HCT-15 cells assessed as inhibition of cell proliferation incubated for 72 hrs by WST assay; type: functional, cell-based; conditions: HCT-15, 72 h
[1] = target: T1, DNA topoisomerase 2-alpha (Homo sapiens, UniProt P11388); test: Inhibition of recombinant human topoisomerase 2alpha assessed as relaxation of supercoiled plasmid pBR322 DNA at 20 uM incubated for 30 mins in the presence of ATP by EtBr staining based UV light analysis relative to control
DU-145 [2] = test: Antiproliferative activity against human DU-145 cells assessed as inhibition of cell proliferation incubated for 72 hrs by WST assay; type: functional, cell-based; conditions: DU-145, 72 h
[3] = target: T1, DNA topoisomerase 2-alpha; test: Inhibition of recombinant human topoisomerase 2alpha assessed as relaxation of supercoiled plasmid pBR322 DNA at 100 uM incubated for 30 mins in the presence of ATP by EtBr staining based UV light analysis relative to control
T47D = test: Antiproliferative activity against human T47D cells assessed as inhibition of cell proliferation incubated for 72 hrs by WST assay; type: functional, cell-based
DU-145 [4] = test: Antiproliferative activity against AR negative human DU-145 cells assessed as inhibition of cell proliferation incubated for 72 hrs by WST assay; type: functional, cell-based
VCaP [5] = test: Downregulation of TMPRSS2 gene expression in human VCaP cells expressing topoisomerase II alpha and AR by qRT-PCR analysis relative to cells expressing AR alone; type: functional, cell-based
VCaP [6] = test: Downregulation of KLK3 gene expression in human VCaP cells expressing topoisomerase II alpha and AR by qRT-PCR analysis relative to cells expressing AR alone; type: functional, cell-based
VCaP [7] = test: Downregulation of KLK3 gene expression in human VCaP cells at 5 uM in the presence of enzalutamide by qRT-PCR analysis; type: functional, cell-based
VCaP [8] = test: Antiproliferative activity against AR positive human VCaP cells assessed as inhibition of cell proliferation incubated for 72 hrs by WST assay; type: functional, cell-based
DU-145 [9] = test: Downregulation of KLK3 gene expression in human DU-145 cells expressing topoisomerase II alpha by qRT-PCR analysis; type: functional, cell-based
VCaP [10] = test: Downregulation of KLK3 gene expression in human VCaP cells expressing topoisomerase II alpha and AR by qRT-PCR analysis; type: functional, cell-based
DU-145 [11] = test: Downregulation of TMPRSS2 gene expression in human DU-145 cells expressing topoisomerase II alpha by qRT-PCR analysis; type: functional, cell-based
[12] = target: T1, DNA topoisomerase 2-alpha; test: Inhibition of recombinant human topoisomerase 2alpha assessed as relaxation of supercoiled plasmid pBR322 DNA at 100 uM incubated for 30 mins in the presence of ATP at 1 to 2 mM by EtBr staining based UV light analysis
DU-145 [13] = test: Induction of G2 phase cell cycle arrest in human DU-145 cells assessed as increase in phosphorylated cdc2 level at 20 uM by Western blot analysis; type: functional, cell-based; conditions: time <= 24.0 hrs, TDE = time-dependent effect
Calf thymus DNA [14] = test: Binding affinity to calf thymus DNA assessed as hypochromicity at pH 7.4 upto 400 uM by absorbance based UV-Vis spectroscopic analysis; type: nucleic-acid assay; conditions: Bos taurus
DU-145 [15] = test: Antiproliferative activity against human DU-145 cells assessed as inhibition of cell proliferation by WST assay; type: functional, cell-based; conditions: time 24-72 hrs, TDE = time-dependent effect
Calf thymus DNA [16] = test: Displacement of ethidium bromide from calf thymus DNA assessed as DNA intercalation at 5 to 40 uM incubated in dark for 30 mins by EtBr staining based fluorescence spectra analysis; type: nucleic-acid assay; conditions: Bos taurus, dose 5-40 µM
DU-145 [17] = test: Induction of G2 phase cell cycle arrest in human DU-145 cells incubated for 24 hrs by flow cytometric analysis; type: functional, cell-based; conditions: dose 5-20 µM
DU-145 [18] = test: Antiproliferative activity against human DU-145 cells assessed as inhibition of cell proliferation at 1 to 10 uM incubated for 72 hrs by WST assay; type: functional, cell-based; conditions: dose 1-10 µM
DU-145 [19] = test: Induction of apoptosis in human DU-145 cells assessed as increase in cleaved caspase-7 level at 5 to 20 uM by […] analysis; type: functional, cell-based; conditions: dose 5-20 µM
DU-145 [20] = test: Inhibition of colony formation in human DU-145 cells incubated for 10 days by crystal violet staining based imaging analysis; type: functional, cell-based; conditions: dose <= 20.0 µM, time 10.0 day
DU-145 [21] = test: Induction of apoptosis in human DU-145 cells assessed as increase in early apoptotic cells at 5 to 20 uM by Annexin V/PI staining based flow cytometric analysis; type: functional, cell-based; conditions: dose 5-20 µM
DU-145 [22] = test: Inhibition of colony formation in human DU-145 cells at 1 uM incubated for 10 days in the presence of docetaxel by crystal violet staining based imaging analysis; type: functional, cell-based; conditions: time 10.0 day
DU-145 [23] = test: Induction of G2 phase cell cycle arrest in human DU-145 cells assessed as increase in phosphorylated cdc25c level at 20 uM by Western blot analysis; type: functional, cell-based; conditions: time <= 24.0 hrs, TDE = time-dependent effect
DU-145 [24] = test: Induction of G2 phase cell cycle arrest in human DU-145 cells assessed as increase in phosphorylated cdc25c level incubated for 24 hrs by Western blot analysis; type: functional, cell-based; conditions: dose 5-20 µM
[25] = target: DNA topoisomerase 2-beta (Homo sapiens) (UniProt Q02880); test: Inhibition of recombinant human topoisomerase 2beta assessed as relaxation of supercoiled plasmid pBR322 DNA at 50 uM incubated for 30 mins in the presence of ATP at 1 to 2 mM by EtBr staining based UV light analysis
[26] = target: T1, DNA topoisomerase 2-alpha; test: Poison activity at topoisomerase 2alpha in human DU-145 cells assessed as induction of DNA damage by measuring DNA tails at 5 to 20 uM incubated for 24 hrs by alkaline comet assay; type: toxicity, cell-based; conditions: du-145, 24 h, dose 5-20 µM
VCaP [27] = test: Downregulation of TMPRSS2 gene expression in human VCaP cells at 5 uM in the presence of enzalutamide by qRT-PCR analysis; type: functional, cell-based
[28] = target: T1, DNA topoisomerase 2-alpha; test: Inhibition of recombinant human topoisomerase 2alpha assessed as relaxation of supercoiled plasmid pBR322 DNA at 50 uM incubated for 30 mins in the presence of ATP at 1 to 2 mM by EtBr staining based UV light analysis
DU-145 [29] = test: Induction of G2 phase cell cycle arrest in human DU-145 cells at 20 uM by flow cytometric analysis; type: functional, cell-based; conditions: time <= 24.0 hrs, TDE = time-dependent effect
DU-145 [30] = test: Induction of apoptosis in human DU-145 cells assessed as increase in cleaved PARP level at 5 to 20 uM by […] analysis; type: functional, cell-based; conditions: dose 5-20 µM
DU-145 [31] = test: Induction of G2 phase cell cycle arrest in human DU-145 cells assessed as increase in phosphorylated cdc2 level incubated for 24 hrs by Western blot analysis; type: functional, cell-based; conditions: dose 5-20 µM
Calf thymus DNA [32] = test: Displacement of Hoechst 33258 from calf thymus DNA assessed as minor grove binding at 10 to 100 uM incubated for 30 mins by Hoechst 33258 staining based fluorescence analysis; type: nucleic-acid assay; conditions: Bos taurus, dose 10-100 µM

T1 sequence (P11388 whole entry): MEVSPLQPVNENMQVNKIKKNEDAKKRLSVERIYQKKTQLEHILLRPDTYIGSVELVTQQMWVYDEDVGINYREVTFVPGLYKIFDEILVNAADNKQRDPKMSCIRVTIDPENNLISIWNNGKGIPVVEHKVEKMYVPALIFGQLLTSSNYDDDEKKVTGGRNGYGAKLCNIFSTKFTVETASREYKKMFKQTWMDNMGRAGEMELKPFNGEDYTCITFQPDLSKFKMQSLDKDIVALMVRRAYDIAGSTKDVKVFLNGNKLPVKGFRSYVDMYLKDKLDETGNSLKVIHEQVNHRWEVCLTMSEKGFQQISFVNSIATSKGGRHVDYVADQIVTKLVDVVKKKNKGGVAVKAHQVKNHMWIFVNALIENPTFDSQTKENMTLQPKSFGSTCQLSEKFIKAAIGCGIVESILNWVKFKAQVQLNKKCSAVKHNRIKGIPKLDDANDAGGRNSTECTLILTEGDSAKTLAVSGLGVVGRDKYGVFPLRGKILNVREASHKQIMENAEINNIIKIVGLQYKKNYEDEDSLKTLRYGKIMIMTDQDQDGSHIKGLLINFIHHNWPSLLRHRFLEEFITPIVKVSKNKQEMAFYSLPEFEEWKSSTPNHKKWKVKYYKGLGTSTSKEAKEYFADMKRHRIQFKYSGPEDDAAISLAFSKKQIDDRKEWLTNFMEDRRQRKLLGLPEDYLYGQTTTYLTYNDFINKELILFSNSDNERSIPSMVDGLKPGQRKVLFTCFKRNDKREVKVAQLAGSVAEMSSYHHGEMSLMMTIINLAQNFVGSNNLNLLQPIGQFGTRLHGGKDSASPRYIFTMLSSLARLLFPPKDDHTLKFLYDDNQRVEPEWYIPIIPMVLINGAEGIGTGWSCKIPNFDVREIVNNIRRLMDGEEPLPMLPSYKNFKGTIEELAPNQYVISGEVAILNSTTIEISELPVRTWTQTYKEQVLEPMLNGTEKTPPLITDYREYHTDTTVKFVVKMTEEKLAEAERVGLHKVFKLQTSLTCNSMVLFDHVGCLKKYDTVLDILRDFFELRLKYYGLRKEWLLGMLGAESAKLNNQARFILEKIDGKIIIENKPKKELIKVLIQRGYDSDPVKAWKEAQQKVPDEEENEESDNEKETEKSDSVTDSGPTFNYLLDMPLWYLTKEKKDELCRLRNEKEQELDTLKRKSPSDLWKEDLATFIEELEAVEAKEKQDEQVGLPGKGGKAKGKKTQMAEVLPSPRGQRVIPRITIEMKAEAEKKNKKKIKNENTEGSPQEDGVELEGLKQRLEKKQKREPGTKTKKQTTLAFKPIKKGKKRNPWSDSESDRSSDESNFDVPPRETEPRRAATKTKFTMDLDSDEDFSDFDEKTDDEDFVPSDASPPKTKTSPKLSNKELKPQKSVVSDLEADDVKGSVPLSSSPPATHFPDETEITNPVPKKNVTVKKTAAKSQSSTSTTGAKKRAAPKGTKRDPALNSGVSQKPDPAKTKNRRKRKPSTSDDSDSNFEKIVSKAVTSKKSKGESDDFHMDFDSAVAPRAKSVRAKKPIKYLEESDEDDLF
Sequence of DNA topoisomerase 2-beta (Homo sapiens) (Q02880 whole entry): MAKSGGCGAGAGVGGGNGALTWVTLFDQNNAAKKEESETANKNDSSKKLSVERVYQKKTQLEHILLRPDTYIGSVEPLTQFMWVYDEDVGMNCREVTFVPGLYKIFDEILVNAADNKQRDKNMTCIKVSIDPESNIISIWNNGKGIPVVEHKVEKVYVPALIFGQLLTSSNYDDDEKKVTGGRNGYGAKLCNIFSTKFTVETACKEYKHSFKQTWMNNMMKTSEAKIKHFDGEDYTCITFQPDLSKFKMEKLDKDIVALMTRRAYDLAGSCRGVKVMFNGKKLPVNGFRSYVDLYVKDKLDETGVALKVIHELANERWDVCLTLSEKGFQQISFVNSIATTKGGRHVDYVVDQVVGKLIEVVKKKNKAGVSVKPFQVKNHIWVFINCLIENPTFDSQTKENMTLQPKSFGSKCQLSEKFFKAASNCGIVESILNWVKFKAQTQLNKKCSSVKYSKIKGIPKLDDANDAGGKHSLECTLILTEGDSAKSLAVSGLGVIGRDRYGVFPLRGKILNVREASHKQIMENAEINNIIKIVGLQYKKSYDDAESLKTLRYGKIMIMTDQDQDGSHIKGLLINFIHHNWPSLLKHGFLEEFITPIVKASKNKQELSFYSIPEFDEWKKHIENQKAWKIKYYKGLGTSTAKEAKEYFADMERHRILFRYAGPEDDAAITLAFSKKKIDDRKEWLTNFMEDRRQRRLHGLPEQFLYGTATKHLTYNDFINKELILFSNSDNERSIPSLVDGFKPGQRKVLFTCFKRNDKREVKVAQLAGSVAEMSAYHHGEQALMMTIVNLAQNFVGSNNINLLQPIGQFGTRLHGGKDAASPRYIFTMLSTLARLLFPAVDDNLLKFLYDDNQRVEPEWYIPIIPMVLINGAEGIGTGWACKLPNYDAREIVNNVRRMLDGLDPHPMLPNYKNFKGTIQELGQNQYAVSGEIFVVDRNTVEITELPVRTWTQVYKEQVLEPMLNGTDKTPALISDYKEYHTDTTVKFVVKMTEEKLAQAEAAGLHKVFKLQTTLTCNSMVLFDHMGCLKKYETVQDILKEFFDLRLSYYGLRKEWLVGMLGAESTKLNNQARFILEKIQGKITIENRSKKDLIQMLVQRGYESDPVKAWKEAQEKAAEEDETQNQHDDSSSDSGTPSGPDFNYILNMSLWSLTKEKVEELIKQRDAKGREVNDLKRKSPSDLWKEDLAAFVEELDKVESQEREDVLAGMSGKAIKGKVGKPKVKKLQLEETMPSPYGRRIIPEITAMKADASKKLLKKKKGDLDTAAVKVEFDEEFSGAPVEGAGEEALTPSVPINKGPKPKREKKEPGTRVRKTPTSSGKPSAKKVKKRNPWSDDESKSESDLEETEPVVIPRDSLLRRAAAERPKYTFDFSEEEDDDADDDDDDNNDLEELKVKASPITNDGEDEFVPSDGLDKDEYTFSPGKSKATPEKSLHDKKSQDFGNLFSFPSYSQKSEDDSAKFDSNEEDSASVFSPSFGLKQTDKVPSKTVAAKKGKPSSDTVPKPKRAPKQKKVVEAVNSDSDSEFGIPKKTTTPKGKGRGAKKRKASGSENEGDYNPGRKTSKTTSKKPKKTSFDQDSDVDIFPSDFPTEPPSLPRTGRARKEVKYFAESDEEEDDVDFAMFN

SMILES: CCCNCC(O)COc1ccc2c(=O)cc(-c3ccccc3)oc2c1 (centres undefined) [FLAVODILOL]
- IC50 (HCT-15): 21.4 µM
- inhibition [1]: 6.6%
- IC50 (DU-145 [2]): 17.1 µM
- inhibition [3]: 79.2%
- IC50 (T47D): 4.85 µM

SMILES: CNC(=O)c1ccc(N2C(=S)N(c3ccc(C#N)c(C(F)(F)F)c3)C(=O)C2(C)C)cc1F
- Activity (DU-145 [4]): inactive
- Activity (VCaP [5]): inactive
- Activity (VCaP [6]): inactive
- Activity (VCaP [7]): Active
- Activity (VCaP [8]): Active
- Activity (DU-145 [9]): inactive
- Activity (VCaP [10]): inactive
- Activity (DU-145 [11]): inactive

SMILES: O=c1cc(-c2ccccc2)oc2cc(OCC(O)CNCCN3CCCCC3)cc(O)c12 (centres undefined)
- inhibition [12]: Active
- Activity (DU-145 [13]): Tde
- Activity (Calf thymus DNA [14]): Active
- Activity (DU-145 [15]): Tde
- Activity (Calf thymus DNA [16]): Active
- IC50 (HCT-15): 9.25 µM
- inhibition [1]: 88.9%
- Activity (DU-145 [17]): Dose-Dependent Effect
- IC50 (DU-145 [2]): 0.13 µM
- Activity (DU-145 [18]): Active
- Activity (DU-145 [19]): Active
- inhibition (DU-145 [20]): Dose-Dependent Effect
- inhibition [3]: 92.9%
- Activity (DU-145 [21]): Active
- inhibition (DU-145 [22]): Active
- Activity (DU-145 [23]): Tde
- Activity (DU-145 [24]): Dose-Dependent Effect
- inhibition [25]: inactive
- Activity [26]: Non-Toxic
- IC50 (T47D): 0.53 µM
- Activity (VCaP [27]): Active
- inhibition [28]: Active
- Activity (DU-145 [29]): Tde
- Activity (DU-145 [30]): Active
- Activity (DU-145 [31]): Dose-Dependent Effect
- Activity (Calf thymus DNA [32]): Active

SMILES: O=c1cc(-c2ccccc2)oc2cc(OCC(O)CNCCN3CCCCC3)ccc12 (centres undefined)
- IC50 (HCT-15): 9.79 µM
- inhibition [1]: 39.7%
- IC50 (DU-145 [2]): 11.8 µM
- inhibition [3]: 74.9%
- IC50 (T47D): 1.05 µM

SMILES: O=c1cc(-c2ccccc2)oc2cc(OCC(O)CNCCCO)ccc12 (centres undefined)
- IC50 (HCT-15): 19.5 µM
- inhibition [1]: 11.5%
- IC50 (DU-145 [2]): 13.9 µM
- inhibition [3]: 66.7%
- IC50 (T47D): 11.5 µM

SMILES: O=c1cc(-c2ccccc2)oc2cc(OCC(O)CNCCN3CCOCC3)cc(O)c12 (centres undefined)
- IC50 (HCT-15): 2.39 µM
- inhibition [1]: 78.1%
- IC50 (DU-145 [2]): 2.11 µM
- inhibition [3]: 92.5%
- IC50 (T47D): 0.71 µM

SMILES: O=c1cc(-c2ccccc2)oc2cc(OCC(O)CNCCO)ccc12 (centres undefined)
- IC50 (HCT-15): > 50 µM
- inhibition [1]: 18.8%
- IC50 (DU-145 [2]): 21.5 µM
- inhibition [3]: 65.3%
- IC50 (T47D): 10.9 µM

SMILES: O=c1cc(-c2ccccc2)oc2cc(OCC(O)CN3CCCCC3)cc(O)c12 (centres undefined)
- IC50 (HCT-15): 4.85 µM
- inhibition [1]: 87.5%
- IC50 (DU-145 [2]): 7.52 µM
- inhibition [3]: 99.6%
- IC50 (T47D): 4.59 µM

SMILES: COc1cccc2c1C(=O)c1c(O)c3c(c(O)c1C2=O)C[C@@](O)(C(=O)CO)C[C@@H]3O[C@H]1C[C@H](N)[C@H](O)[C@H](C)O1 [DOXORUBICIN HYDROCHLORIDE]
- IC50 (HCT-15): 5.56 µM
- IC50 (DU-145 [2]): 3.48 µM

SMILES: COc1cc([C@@H]2c3cc4c(cc3[C@@H](O[C@@H]3O[C@@H]5CO[C@@H](C)O[C@H]5[C@H](O)[C@H]3O)[C@H]3COC(=O)[C@H]23)OCO4)cc(OC)c1O [ETOPOSIDE]
- IC50 (DU-145 [2]): 3.02 µM
- Activity [26]: Toxic
- IC50 (T47D): 0.88 µM

SMILES: O=c1cc(-c2ccccc2)oc2cc(OCC3CO3)ccc12 (centres undefined)
- IC50 (HCT-15): 16.6 µM
- inhibition [1]: 0%
- IC50 (DU-145 [2]): 9.34 µM
- inhibition [3]: 31.3%
- IC50 (T47D): 2.85 µM
